Laboratory results as given in article PMC5218480 (PLoS ONE, 2017).

System: MV-4-11 cells
Assay: Gene expression microarray analysis (Affymetrix PrimeView) and GSEA
Assay type: cell-based, human
Set-up: RFU PODN (11730768_x_at) / Fold change /veh PODN (11730768_x_at) / RFU LINC00158 (11744669_a_at) / Fold change /veh LINC00158 (11744669_a_at) / RFU DUSP10 (11751237_a_at) / Fold change /veh DUSP10 (11751237_a_at) / RFU ID3 (11757404_x_at) / Fold change /veh ID3 (11757404_x_at) / RFU PLEKHG5 (11737974_s_at) / Fold change /veh PLEKHG5 (11737974_s_at) / RFU LRRC4B (11730491_at) / Fold change /veh LRRC4B (11730491_at) / RFU GIMAP4 (11747438_a_at) / Fold change /veh GIMAP4 (11747438_a_at) / RFU KRT8 (11758183_x_at) / Fold change /veh KRT8 (11758183_x_at) / RFU CNN1 (11734310_a_at) / Fold change /veh CNN1 (11734310_a_at) / RFU VPS37D (11726825_at) / Fold change /veh VPS37D (11726825_at) / RFU C10orf10 (11716522_x_at) / Fold change /veh C10orf10 (11716522_x_at) / RFU KIR2DL2 /// KIR2DL4 /// KIR2DL5A /// KIR2DL5B /// KIR2DS1 /// KIR2DS2 /// KIR2DS3 /// KIR2DS4 /// KIR3DL3 /// KIR3DL3 /// KIR3DS1 (11738374_at) / Fold change /veh KIR2DL2 /// KIR2DL4 /// KIR2DL5A /// KIR2DL5B /// KIR2DS1 /// KIR2DS2 /// KIR2DS3 /// KIR2DS4 /// KIR3DL3 /// KIR3DL3 /// KIR3DS1 (11738374_at) / RFU C1QL1 (11718748_at) / Fold change /veh C1QL1 (11718748_at) / RFU TMPRSS4 (11747572_a_at) / Fold change /veh TMPRSS4 (11747572_a_at) / RFU HAMP (11756126_x_at) / Fold change /veh HAMP (11756126_x_at) / RFU RNFT2 (11725882_a_at) / Fold change /veh RNFT2 (11725882_a_at) / RFU NR4A2 (11747474_a_at) / Fold change /veh NR4A2 (11747474_a_at) / RFU ABCC12 (11746883_a_at) / Fold change /veh ABCC12 (11746883_a_at) / RFU TMEM136 (11760407_x_at) / Fold change /veh TMEM136 (11760407_x_at) / RFU CLDN22 /// WWC2 (11732394_at) / Fold change /veh CLDN22 /// WWC2 (11732394_at) / RFU HLA-DPB1 (11760878_x_at) / Fold change /veh HLA-DPB1 (11760878_x_at) / RFU SPINT1 (11716480_a_at) / Fold change /veh SPINT1 (11716480_a_at) / RFU GAP43 (11754022_s_at) / Fold change /veh GAP43 (11754022_s_at) / RFU A4GNT (11735810_at) / Fold change /veh A4GNT (11735810_at) / RFU PRB3 (11715151_x_at) / Fold change /veh PRB3 (11715151_x_at) / RFU TUBB4B (11761932_at) / Fold change /veh TUBB4B (11761932_at) / RFU CAPN14 (11732068_a_at) / Fold change /veh CAPN14 (11732068_a_at) / RFU TMCC2 (11721928_a_at) / Fold change /veh TMCC2 (11721928_a_at) / RFU IRGQ (11745062_a_at) / Fold change /veh IRGQ (11745062_a_at) / RFU FAM174B (11720279_a_at) / Fold change /veh FAM174B (11720279_a_at) / RFU TMPRSS4 (11748680_a_at) / Fold change /veh TMPRSS4 (11748680_a_at) / RFU FAM212B (11763350_a_at) / Fold change /veh FAM212B (11763350_a_at) / RFU PLEKHG5 (11743358_a_at) / Fold change /veh PLEKHG5 (11743358_a_at) / RFU ZSCAN30 (11745921_a_at) / Fold change /veh ZSCAN30 (11745921_a_at) / RFU CMKLR1 (11741424_a_at) / Fold change /veh CMKLR1 (11741424_a_at) / RFU LOC101060620 /// MAPK8IP1 (11723275_at) / Fold change /veh LOC101060620 /// MAPK8IP1 (11723275_at) / RFU SPTSSB (11747773_x_at) / Fold change /veh SPTSSB (11747773_x_at) / RFU PRSS12 (11739890_at) / Fold change /veh PRSS12 (11739890_at) / RFU BIN1 (11741810_x_at) / Fold change /veh BIN1 (11741810_x_at) / RFU WNT11 (11732464_a_at) / Fold change /veh WNT11 (11732464_a_at) / RFU C10orf10 (11716521_a_at) / Fold change /veh C10orf10 (11716521_a_at) / RFU C5orf56 (11738089_at) / Fold change /veh C5orf56 (11738089_at) / RFU CYB561 (11721691_x_at) / Fold change /veh CYB561 (11721691_x_at) / RFU ANKRD19P (11752326_a_at) / Fold change /veh ANKRD19P (11752326_a_at) / RFU OR2T12 /// OR2T33 /// OR2T8 (11738714_s_at) / Fold change /veh OR2T12 /// OR2T33 /// OR2T8 (11738714_s_at) / RFU VCAN (11748164_a_at) / Fold change /veh VCAN (11748164_a_at) / RFU JSRP1 (11732532_at) / Fold change /veh JSRP1 (11732532_at) / RFU KRTAP10-11 (11738290_x_at) / Fold change /veh KRTAP10-11 (11738290_x_at) / RFU MYO3A (11730013_a_at) / Fold change /veh MYO3A (11730013_a_at) / RFU EBF3 (11725865_a_at) / Fold change /veh EBF3 (11725865_a_at) / RFU CAMK2N1 (11719241_x_at) / Fold change /veh CAMK2N1 (11719241_x_at) / RFU C5orf56 (11738088_a_at) / Fold change /veh C5orf56 (11738088_a_at) / RFU OLFML3 (11715873_a_at) / Fold change /veh OLFML3 (11715873_a_at) / RFU LOC100653217 /// NTM (11731650_a_at) / Fold change /veh LOC100653217 /// NTM (11731650_a_at) / RFU MAPK11 (11762145_a_at) / Fold change /veh MAPK11 (11762145_a_at) / RFU FIZ1 (11724087_x_at) / Fold change /veh FIZ1 (11724087_x_at) / RFU OASL (11726364_x_at) / Fold change /veh OASL (11726364_x_at) / RFU SOX15 (11748057_x_at) / Fold change /veh SOX15 (11748057_x_at) / RFU CD79A (11719716_a_at) / Fold change /veh CD79A (11719716_a_at) / RFU HIST1H1D (11736915_at) / Fold change /veh HIST1H1D (11736915_at) / RFU CASKIN2 (11723855_a_at) / Fold change /veh CASKIN2 (11723855_a_at) / RFU LOC730098 (11760151_x_at) / Fold change /veh LOC730098 (11760151_x_at) / RFU OR4N2 (11742367_at) / Fold change /veh OR4N2 (11742367_at) / RFU PRRT2 (11749266_a_at) / Fold change /veh PRRT2 (11749266_a_at) / RFU SNX32 (11753110_a_at) / Fold change /veh SNX32 (11753110_a_at) / RFU CDHR5 (11726645_a_at) / Fold change /veh CDHR5 (11726645_a_at) / RFU RCAN1 (11760418_a_at) / Fold change /veh RCAN1 (11760418_a_at) / RFU FAM167A (11723789_a_at) / Fold change /veh FAM167A (11723789_a_at) / RFU FAM26E (11764081_at) / Fold change /veh FAM26E (11764081_at) / RFU ISYNA1 (11749810_s_at) / Fold change /veh ISYNA1 (11749810_s_at) / RFU ACY1 (11761880_at) / Fold change /veh ACY1 (11761880_at) / RFU 11764098_at / Fold change /veh 11764098_at / RFU SAMD14 (11745864_x_at) / Fold change /veh SAMD14 (11745864_x_at) / RFU NPB (11741838_a_at) / Fold change /veh NPB (11741838_a_at) / RFU TMPRSS6 (11731388_a_at) / Fold change /veh TMPRSS6 (11731388_a_at) / RFU KRTAP10-2 (11738614_at) / Fold change /veh KRTAP10-2 (11738614_at) / RFU ARHGAP8 /// PRR5-ARHGAP8 (11727945_x_at) / Fold change /veh ARHGAP8 /// PRR5-ARHGAP8 (11727945_x_at) / RFU KRTAP5-7 /// NADSYN1 (11734609_at) / Fold change /veh KRTAP5-7 /// NADSYN1 (11734609_at) / RFU RASL12 (11751679_a_at) / Fold change /veh RASL12 (11751679_a_at) / RFU CDKN2B (11736163_a_at) / Fold change /veh CDKN2B (11736163_a_at) / RFU PRF1 (11729649_at) / Fold change /veh PRF1 (11729649_at) / RFU, ZNF638 /// ZNF638-IT1 / Fold change vs veh, ZNF638 /// ZNF638-IT1 / RFU, PANK3 / Fold change vs veh, PANK3 / RFU, SH3YL1 / Fold change vs veh, SH3YL1 / RFU, ZEB2 / Fold change vs veh, ZEB2 / RFU, NRIP1 / Fold change vs veh, NRIP1 / RFU, PTTG1IP / Fold change vs veh, PTTG1IP / RFU, CAPN2 / Fold change vs veh, CAPN2 / RFU, MED14 / Fold change vs veh, MED14 / RFU, SNORA58 / Fold change vs veh, SNORA58 / RFU, C1orf63 / Fold change vs veh, C1orf63 / RFU, LRRFIP1 / Fold change vs veh, LRRFIP1 / RFU, NDUFAF7 / Fold change vs veh, NDUFAF7 / RFU, SLC12A2 / Fold change vs veh, SLC12A2 / RFU, IBTK / Fold change vs veh, IBTK / RFU, ESF1 / Fold change vs veh, ESF1 / Fold change vs veh, TMEM50B / RFU, TAOK1 / Fold change vs veh, TAOK1 / RFU, ACBD3 / Fold change vs veh, ACBD3 / RFU, TMA16 / Fold change vs veh, TMA16 / RFU, RWDD3 / Fold change vs veh, RWDD3 / RFU, BCAT1 / Fold change vs veh, BCAT1 / RFU, EDEM3 / Fold change vs veh, EDEM3 / RFU, TMEM33 / Fold change vs veh, TMEM33 / RFU, WDR75 / Fold change vs veh, WDR75 / RFU, AHCTF1 / Fold change vs veh, AHCTF1 / RFU, TFRC / Fold change vs veh, TFRC / RFU, ZDHHC17 / Fold change vs veh, ZDHHC17 / RFU, NOM1 / Fold change vs veh, NOM1 / RFU, ARL8B / Fold change vs veh, ARL8B / RFU, ZBTB11 / Fold change vs veh, ZBTB11 / RFU, TAMM41 / Fold change vs veh, TAMM41 / RFU, KIAA1704 /// LOC100996395 / Fold change vs veh, KIAA1704 /// LOC100996395 / RFU, ING1 / Fold change vs veh, ING1 / RFU, TRMT61B / Fold change vs veh, TRMT61B / RFU, FUBP3 / Fold change vs veh, FUBP3 / RFU, TP53 / Fold change vs veh, TP53 / RFU, TNKS2 / Fold change vs veh, TNKS2 / RFU, ZFP14 / Fold change vs veh, ZFP14 / RFU, ACTR2 / Fold change vs veh, ACTR2 / RFU, PPP3R1 / Fold change vs veh, PPP3R1 / RFU, PIK3R1 / Fold change vs veh, PIK3R1 / RFU, HNRNPA1 / Fold change vs veh, HNRNPA1 / RFU, RNF170 / Fold change vs veh, RNF170 / RFU, ZNF28 / Fold change vs veh, ZNF28 / RFU, RNGTT / Fold change vs veh, RNGTT / RFU, OGT / Fold change vs veh, OGT / RFU, BRD1 / Fold change vs veh, BRD1 / RFU, MARS / Fold change vs veh, MARS / RFU, ZNF655 / Fold change vs veh, ZNF655 / RFU, FAHD1 / Fold change vs veh, FAHD1 / RFU, BDP1 / Fold change vs veh, BDP1 / RFU, LRRCC1 / Fold change vs veh, LRRCC1 / RFU, ARID1A / Fold change vs veh, ARID1A / RFU, ZNF146 / Fold change vs veh, ZNF146 / RFU, ZNF330 / Fold change vs veh, ZNF330 / RFU, GPN3 / Fold change vs veh, GPN3 / RFU, C9orf123 / Fold change vs veh, C9orf123 / RFU, N4BP2L2 / Fold change vs veh, N4BP2L2 / RFU, ARFIP1 / Fold change vs veh, ARFIP1 / RFU, FAM179B / Fold change vs veh, FAM179B / RFU, BCL10 / Fold change vs veh, BCL10 / RFU, UHRF1BP1L / Fold change vs veh, UHRF1BP1L / RFU, BET1 / Fold change vs veh, BET1 / RFU, CNOT2 / Fold change vs veh, CNOT2 / RFU, ZNF268 / Fold change vs veh, ZNF268 / Fold change vs veh, ZNF507 / RFU, DGCR2 / Fold change vs veh, DGCR2 / RFU, WDSUB1 / Fold change vs veh, WDSUB1 / Fold change vs veh, HSP90B1 /// MIR3652 / RFU, ADSS / Fold change vs veh, ADSS / RFU, GK / Fold change vs veh, GK / RFU, ZNF148 / Fold change vs veh, ZNF148 / RFU, TAF9 / Fold change vs veh, TAF9 / RFU, SLC1A5 / Fold change vs veh, SLC1A5 / RFU, SLMO2 / Fold change vs veh, SLMO2 / RFU, ABCC4 / Fold change vs veh, ABCC4 / RFU, LOC101060439 /// RAP1B / Fold change vs veh, LOC101060439 /// RAP1B / RFU, RFX7 / Fold change vs veh, RFX7 / RFU, GTPBP10 / Fold change vs veh, GTPBP10 / RFU, CNEP1R1 / Fold change vs veh, CNEP1R1 / RFU, BIVM-ERCC5 /// ERCC5 / Fold change vs veh, BIVM-ERCC5 /// ERCC5 / RFU, ILF3 / Fold change vs veh, ILF3 / RFU 11762660_at / Fold change /veh 11762660_at / RFU VCAN (11757783_s_at) / Fold change /veh VCAN (11757783_s_at) / RFU DDX43 (11728927_at) / Fold change /veh DDX43 (11728927_at) / RFU KRT8 (11758188_x_at) / Fold change /veh KRT8 (11758188_x_at) / RFU NKD1 (11759106_at) / Fold change /veh NKD1 (11759106_at) / RFU SRD5A1 (11742802_a_at) / Fold change /veh SRD5A1 (11742802_a_at) / RFU TPSAB1 /// TPSB2 (11721975_s_at) / Fold change /veh TPSAB1 /// TPSB2 (11721975_s_at) / RFU GSTM3 (11746129_a_at) / Fold change /veh GSTM3 (11746129_a_at) / RFU IL23R (11737362_x_at) / Fold change /veh IL23R (11737362_x_at) / RFU TMEM51 (11727254_a_at) / Fold change /veh TMEM51 (11727254_a_at) / RFU PIWIL2 (11732686_x_at) / Fold change /veh PIWIL2 (11732686_x_at) / RFU ORM1 (11744905_x_at) / Fold change /veh ORM1 (11744905_x_at) / RFU CCDC152 (11743942_at) / Fold change /veh CCDC152 (11743942_at) / RFU ECM1 (11717891_a_at) / Fold change /veh ECM1 (11717891_a_at) / RFU IL23R (11748794_a_at) / Fold change /veh IL23R (11748794_a_at) / RFU TNFAIP8L3 (11732012_x_at) / Fold change /veh TNFAIP8L3 (11732012_x_at) / RFU MBOAT4 (11741988_at) / Fold change /veh MBOAT4 (11741988_at) / RFU 11764193_at / Fold change /veh 11764193_at / RFU TMEM53 (11763286_at) / Fold change /veh TMEM53 (11763286_at) / RFU MAGEB2 (11727129_at) / Fold change /veh MAGEB2 (11727129_at) / RFU TMEM200A (11744735_a_at) / Fold change /veh TMEM200A (11744735_a_at) / RFU CCDC152 (11751479_a_at) / Fold change /veh CCDC152 (11751479_a_at) / RFU FAM211A (11726209_a_at) / Fold change /veh FAM211A (11726209_a_at) / RFU RGS16 (11746705_a_at) / Fold change /veh RGS16 (11746705_a_at) / RFU VCAN (11755009_s_at) / Fold change /veh VCAN (11755009_s_at) / RFU RHOB (11743442_s_at) / Fold change /veh RHOB (11743442_s_at) / RFU RGS16 (11720943_a_at) / Fold change /veh RGS16 (11720943_a_at) / RFU RGS16 (11720944_at) / Fold change /veh RGS16 (11720944_at) / RFU, VPS4B / Fold change vs veh, VPS4B / RFU, CREB1 / Fold change vs veh, CREB1 / RFU, DNAJC13 / Fold change vs veh, DNAJC13 / RFU, GNAQ / Fold change vs veh, GNAQ / RFU, CDK5R1 / Fold change vs veh, CDK5R1 / RFU, ZRANB3 / Fold change vs veh, ZRANB3 / RFU, CUL4A / Fold change vs veh, CUL4A / RFU, CCNY / Fold change vs veh, CCNY / RFU, UFL1 / Fold change vs veh, UFL1 / RFU, COG3 / Fold change vs veh, COG3 / RFU, DIAPH2 / Fold change vs veh, DIAPH2 / RFU, SKA2 / Fold change vs veh, SKA2 / RFU, AFF3 / Fold change vs veh, AFF3 / RFU, LMF1 / Fold change vs veh, LMF1 / RFU, IPO11 / Fold change vs veh, IPO11 / RFU, DFFB / Fold change vs veh, DFFB / RFU, FOXP1 / Fold change vs veh, FOXP1 / RFU, CARD8 / Fold change vs veh, CARD8 / RFU, STRN3 / Fold change vs veh, STRN3 / RFU, ADK / Fold change vs veh, ADK / RFU, RASSF2 / Fold change vs veh, RASSF2 / RFU, WIPF1 / Fold change vs veh, WIPF1 / RFU, LARP1B / Fold change vs veh, LARP1B / RFU, RASA1 / Fold change vs veh, RASA1 / RFU, RB1 / Fold change vs veh, RB1 / RFU, PPFIA1 / Fold change vs veh, PPFIA1 / RFU, MAT2A / Fold change vs veh, MAT2A / RFU, CCT5 / Fold change vs veh, CCT5 / RFU, WDR92 / Fold change vs veh, WDR92 / RFU, CUX1 / Fold change vs veh, CUX1 / RFU, TTC7A / Fold change vs veh, TTC7A / RFU, TMEM135 / Fold change vs veh, TMEM135 / RFU, DEPTOR / Fold change vs veh, DEPTOR / RFU, CPM / Fold change vs veh, CPM / RFU, DNAJB6 / Fold change vs veh, DNAJB6 / RFU, CACNA2D3 / Fold change vs veh, CACNA2D3 / RFU, DTX4 / Fold change vs veh, DTX4 / RFU, TFCP2 / Fold change vs veh, TFCP2 / RFU, GMCL1 /// GMCL1P1 / Fold change vs veh, GMCL1 /// GMCL1P1 / RFU, AEBP2 / Fold change vs veh, AEBP2 / RFU, SNHG1 /// SNORD22 /// SNORD25 /// SNORD26 /// SNORD27 /// SNORD28 /// SNORD29 /// SNORD31 / Fold change vs veh, SNHG1 /// SNORD22 /// SNORD25 /// SNORD26 /// SNORD27 /// SNORD28 /// SNORD29 /// SNORD31 / Fold change (Aza/veh), C12orf56 (ProbeSet 11735607_a_at) / Fold change (ACY-1035/veh), C12orf56 (ProbeSet 11735607_a_at) / Fold change (Aza/veh), FGFR1OP (ProbeSet 11751329_s_at) / Fold change (ACY-1035/veh), FGFR1OP (ProbeSet 11751329_s_at) / Fold change (Aza/veh), VPS36 (ProbeSet 11739960_a_at) / Fold change (ACY-1035/veh), VPS36 (ProbeSet 11739960_a_at) / RFU SYPL1 (11715823_x_at) / Fold change /veh SYPL1 (11715823_x_at) / RFU IGFBP7 (11715501_s_at) / Fold change /veh IGFBP7 (11715501_s_at) / RFU REEP3 (11722064_at) / Fold change /veh REEP3 (11722064_at) / RFU IGLL1 (11728026_x_at) / Fold change /veh IGLL1 (11728026_x_at): dose or concentration left out as unconfirmed
Conditions: ProbeSet 11741070_a_at; LIST B

Nc1ccc(-c2cccs2)cc1NC(=O)c1ccc2c(c1)cc(C1CC1)n2CCN1CCOCC1 [ACY-1035]
Fold change vs veh, ZNF146: 0.99
